Results from patent US10899754B2, “Modulators of indoleamine 2,3-dioxygenase” (GLAXOSMITHKLINE INTELLECTUAL PROPERTY DEVELOPMENT LIMITED, priority 2016, dated 2021).

Legend:
Format in all cases: cell-based
[1] = system: human epithelial HeLa cells; experiment: HeLa cytotoxicity assay (CellTiter-Glo); settings: pCC50
Experimental: (§1) Compounds of the present invention were tested via high-throughput cellular assays utilizing detection of kynurenine via mass spectrometry and cytotoxicity as end-points. For the mass spectrometry and cytotoxicity assays, human epithelial HeLa cells (CCL-2; ATCC®, Manassas, Va.) were stimulated with human interferon-γ (IFN-γ) (Sigma-Aldrich Corporation, St. Louis, Mo.) to induce the expression of indoleamine 2, 3-dioxygenase (IDO1). Compounds with IDO1 inhibitory properties decreased the amount of kynurenine produced by the cells via the tryptophan catabolic pathway. Cellular toxicity due to the effect of compound treatment was measured using CellTiter-Glo® reagent (CTG) (Promega Corporation, Madison, Wis.), which is based on luminescent detection of ATP, an indicator of metabolically active cells.
(§2) In preparation for the assays, test compounds were serially diluted 3-fold in DMSO from a typical top concentration of 1 mM or 5 mM and plated at 0.5 μL in 384-well, polystyrene, clear bottom, tissue culture treated plates with lids (Greiner Bio-One, Kremsmünster, Austria) to generate 11-point dose response curves. Low control wells (0% kynurenine or 100% cytotoxicity) contained either 0.5 μL of DMSO in the presence of unstimulated (−IFN-γ) HeLa cells for the mass spectrometry assay or 0.5 μL of DMSO in the absence of cells for the cytotoxicity assay, and high control wells (100% kynurenine or 0% cytotoxicity) contained 0.5 μL of DMSO in the presence of stimulated (+IFN-γ) HeLa cells for both the mass spectrometry and cytotoxicity assays.
(§3) Frozen stocks of HeLa cells were washed and recovered in DMEM high glucose medium with HEPES (Thermo Fisher Scientific, Inc., Waltham, Mass.) supplemented with 10% v/v certified fetal bovine serum (FBS) (Thermo Fisher Scientific, Inc., Waltham, Mass.), and 1× penicillin-streptomycin antibiotic solution (Thermo Fisher Scientific, Inc., Waltham, Mass.). The cells were diluted to 100,000 cells/mL in the supplemented DMEM medium. 50 μL of either the cell suspension, for the mass spectrometry assay, or medium alone, for the cytotoxicity assay, were added to the low control wells, on the previously prepared 384-well compound plates, resulting in 5,000 cells/well or 0 cells/well respectively. IFN-γ was added to the remaining cell suspension at a final concentration of 10 nM, and 50 μL of the stimulated cells were added to all remaining wells on the 384-well compound plates. The plates, with lids, were then placed in a 37° C., 5% CO2 humidified incubator for 2 days.
(§4) Following incubation, the 384-well plates were removed from the incubator and allowed to equilibrate to room temperature for 30 minutes. For the cytotoxicity assay, CellTiter-Glo® was prepared according to the manufacturer's instructions, and 10 μL were added to each plate well. After a twenty minute incubation at room temperature, luminescence was read on an EnVision® Multilabel Reader (PerkinElmer Inc., Waltham, Mass.). For the mass spectrometry assay, 10 μL of supernatant from each well of the compound-treated plates were added to 40 μL of acetonitrile, containing 10 μM of an internal standard for normalization, in 384-well, polypropylene, V-bottom plates (Greiner Bio-One, Kremsmünster, Austria) to extract the organic analytes. Following centrifugation at 2000 rpm for 10 minutes, 10 μL from each well of the acetonitrile extraction plates were added to 90 μL of sterile, distilled H2O in 384-well, polypropylene, V-bottom plates for analysis of kynurenine and the internal standard on the RapidFire 300 (Agilent Technologies, Santa Clara, Calif.) and 4000 QTRAP MS (SCIEX, Framingham, Mass.). MS data were integrated using Agilent Technologies' RapidFire Integrator software, and data were normalized for analysis as a ratio of kynurenine to the internal standard. […]

[2] = molecular target: T1, indoleamine 2, 3-dioxygenase (IDO1) (Homo sapiens, UniProt P14902); experiment: IDO1 HeLa RapidFire MS assay (kynurenine detection by mass spectrometry); set-up: to induce the expression of indoleamine 2, 3-dioxygenase (IDO1); settings: HeLa cells, pIC50, read-out: IDO1_HELA_PXC50 (converted)
Experimental: IDO1 HeLa RapidFire MS Assay
as §1, §2, §3, §4

[3] = system: human peripheral blood mononuclear cells (PBMC); experiment: PBMC cytotoxicity assay (CellTiter-Glo); settings: 2 days, pCC50
Method in brief: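 Human PBMC (50,000 cells/well) stimulated with IFN-γ 100 ng/ml and LPS 50 ng/ml were exposed to 11-point 3-fold compound dilutions for 2 days at 37 °C, 5% CO2. Viability read by CellTiter-Glo ATP luminescence and normalized to no-cell and stimulated-DMSO controls. XC50 derived by four-parameter fit.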

[4] = molecular target: T1, indoleamine 2, 3-dioxygenase (IDO1); experiment: IDO1 PBMC RapidFire MS assay (kynurenine detection by mass spectrometry); set-up: to induce the expression of indoleamine 2, 3-dioxygenase (IDO1); host or cells: human PBMC stimulated with IFN-gamma and LPS; settings: human PBMC stimulated with IFN-γ and LPS, 2 days, pIC50, read-out: PBMC PXC50 (converted)
Method in brief: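 PBMCs (50,000 cells/well) stimulated with IFN-γ 100 ng/ml plus LPS 50 ng/ml, treated with 11-point 3-fold compound series for 2 days at 37° C. Supernatant kynurenine measured by RapidFire MS, normalised to internal standard; parallel cytotoxicity by CellTiter-Glo luminescence; curves fitted for XC50.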

T1 sequence (P14902 whole entry): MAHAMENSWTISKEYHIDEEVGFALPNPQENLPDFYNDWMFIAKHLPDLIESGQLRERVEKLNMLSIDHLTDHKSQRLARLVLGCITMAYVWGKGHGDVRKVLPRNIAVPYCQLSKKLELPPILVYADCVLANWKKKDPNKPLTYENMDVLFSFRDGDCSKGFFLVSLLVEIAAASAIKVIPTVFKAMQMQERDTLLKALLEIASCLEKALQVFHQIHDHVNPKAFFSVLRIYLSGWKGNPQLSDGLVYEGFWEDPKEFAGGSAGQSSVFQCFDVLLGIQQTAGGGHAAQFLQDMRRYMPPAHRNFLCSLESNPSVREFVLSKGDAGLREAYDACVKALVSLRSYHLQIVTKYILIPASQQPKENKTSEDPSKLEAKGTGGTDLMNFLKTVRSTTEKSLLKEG

IC50 [2]	IC50 [4]	SMILES	HELA_IDO1_TOX_PXC50 [1]	PBMC TOX PXC50 [3]
0.0316 µM	–	CC(C)CN(CC(C)C)c1ccc([C@@H]2C[C@@H]2C(=O)O)cc1Nc1nc(C(F)(F)F)ns1 (single isomer, unassigned) [example 206]	<5	–
0.02 µM	0.0501 µM	CC(C)CN(CC(C)C)c1ccc([C@@H]2C[C@@H]2C(=O)O)cc1Nc1nc(C(F)(F)F)ns1 (single isomer, unassigned) [example 209]	–	<5
–	–	CC(C)CN(CC(C)C)c1ccc(C(C)CC(=O)O)cc1Nc1nc(N2CCC2)ns1 (centres unmarked) [example 120, 3-(3-{[3-(azetidin-1-yl) 1,2,4-thiadiazol-5-yl]amino}-4-[bis(2-methylpropyl)amino]phenyl)butanoic acid]	<4.3	4.7
7.94 µM	–	CC(C)CN(CC(C)C)c1ccc(C(C)CC(=O)O)cc1Nc1ncc(-c2ccccc2)o1 (centres unmarked) [example 121, 3-{4-[bis(2-methylpropyl)amino]-3-[(5-phenyl-1,3-oxazol-2-yl)amino]phenyl}butanoic acid]	4.4	–
25.1 µM	–	CC(C)CN(CC(C)C)c1ccc(C(C)CC(=O)O)cc1Nc1noc(-c2ccccc2)n1.O=C(O)C(F)(F)F (centres unmarked) [example 122, 3-{4-[bis(2-methylpropyl)amino]-3-[(5-phenyl-1,2,4-oxadiazol-3-yl)amino]phenyl}butanoic acid]	<4.3	–
–	–	CC(C)CN(CC(C)C)c1ccc(C(C)CC(=O)O)cc1Nc1nnc(-c2ccccc2)o1.O=C(O)C(F)(F)F (centres unmarked) [example 123, 3-{4-[bis(2-methylpropyl)amino]-3-[(5-phenyl-1,3,4-oxadiazol-2-yl)amino]phenyl}butanoic acid]	<4.3	–
12.6 µM	–	CC(C)CN(CC(C)C)c1ccc(C(C)CC(=O)O)cc1Nc1c(Nc2ccccc2)c(=O)c1=O (centres unmarked) [example 124, 3-{4-[bis(2-methylpropyl)amino]-3-{(3,4-dioxo-2-(phenylamino)cyclobut-1-en-1-yl]amino}phenyl}butanoic acid]	<4.3	–
1.26 µM	–	Cc1nnc(Nc2cc(C(C)CC(=O)O)ccc2N(CC(C)C)CC(C)C)o1.O=C(O)C(F)(F)F (centres unmarked) [example 125, 3-{4-[bis(2-methylpropyl)amino]-3-[(5-methyl-1,3,4-oxadiazol-2-yl)amino]phenyl}butanoic acid]	<4.3	–
0.631 µM	–	CC(C)CN(CC(C)C)c1ccc(C(C)CC(=O)O)cc1Nc1nnc(C2CC2)o1.O=C(O)C(F)(F)F (centres unmarked) [example 126, 3-{4-[bis(2-methylpropyl)amino]-3-[(5-cyclopropyl-1,3,4-oxadiazol-2-yl)amino]phenyl}butanoic acid]	<4.3	–
–	–	CC(C)CN(c1ccc(/C=C/C(=O)O)cc1Nc1nc2ccccc2o1)C1CCCCC1 [example 137, (2E)-3-{3-[(1,3-benzoxazol-2-yl)amino]-4-[cyclohexyl(2-methylpropyl)amino]phenyl}prop-2-enoic acid]	<5	–
–	5.01 µM	CC(C)CN(c1ccc(C(C)CC(=O)O)cc1NCc1c[nH]cn1)C1CCCCC1 (centres unmarked) [example 159, 3-{4-[cyclohexyl(2-methylpropyl)amino]-3-{[(1H-imidazol-4-yl)methyl]amino}phenyl} butanoic acid]	<5	<5
0.0501 µM	0.0398 µM	COCc1nnc(Nc2cc([C@H](C)CC(=O)O)ccc2N(CC(C)C)C2CCOCC2)s1 [example 216, (3R)-3-(3-{[5-(methoxymethyl)-1,3,4-thiadiazol-2-yl]amino}-4-[(2-methylpropyl)(oxan-4-yl)amino]phenyl)butanoic acid]	–	<5
–	0.1 µM	CC(C)CN(CCCCCNC(=O)OC1CC/C=C/CCC1)c1ccc(C(C)CC(=O)O)cc1Nc1nc(C(F)(F)F)ns1 (centres unmarked) [example 259, 3-(4-{[5-({[(4E)-cyclooct-4-en-1-yloxy]carbonyl}amino)pentyl](2-methylpropyl)amino}-3-{[3-(trifluoromethyl)-1,2,4-thiadiazol-5-yl]amino}phenyl)butanoic acid]	–	<4.3
–	0.0398 µM	Cc1nc(Nc2cc([C@H](C)CC(=O)O)ccc2N(CC(C)C)C2CCOCC2)ccc1Cl [example 260, (3R)-3-{3-[(5-chloro-6-methylpyridin-2-yl)amino]-4-[(2-methylpropyl)(oxan-4-yl)amino]phenyl}butanoic acid]	–	<5
–	0.0316 µM	CC(C)CN(c1ccc([C@H](C)CC(=O)O)cc1Nc1nnc(C(N)=O)s1)C1CCOCC1 [example 261, (3R)-3-{3-[(5-carbamoyl-1,3,4-thiadiazol-2-yl)amino]-4-[(2-methylpropyl)(oxan-4-yl)amino]phenyl}butanoic acid]	–	<5
–	0.501 µM	CC(C)CN(c1ccc([C@H](C)CC(=O)O)cc1Nc1cnc(C(N)=O)nc1)C1CCOCC1 [example 263, (3R)-3-{3-[(2-carbamoylpyrimidin-5-yl)amino]-4-[(2-methylpropyl)(oxan-4-yl)amino]phenyl}butanoic acid]	–	<5
–	0.0794 µM	CC(C)CN(c1ccc([C@H](C)CC(=O)O)cc1Nc1cnc(C(N)=O)cn1)C1CCOCC1 [example 264, (3R)-3-{3-[(5-carbamoylpyrazin-2-yl)amino]-4-[(2-methylpropyl)(oxan-4-yl)amino]phenyl}butanoic acid]	–	<5
–	> 10 µM	CC(C)CN(c1ccc([C@H](C)CC(=O)O)cc1N(c1cnc(C(=O)O)nc1)c1cnc(C(=O)O)nc1)C1CCOCC1 [example 265, 5-({5-[(2R)-1-carboxypropan-2-yl]-2-[(2-methylpropyl)(oxan-4-yl)amino]phenyl}(2-carboxypyrimidin-5-yl)amino)pyrimidine-2-carboxylic acid]	–	<5
–	0.0398 µM	CC(C)CN(c1ccc(-c2ccncc2C(=O)O)cc1Nc1nc(C(F)(F)F)ns1)C1CCOCC1 [example 267, 4-{4-[(2-methylpropyl)(oxan-4-yl)amino]-3-{[3-(trifluoromethyl)-1,2,4-thiadiazol-5-yl]amino}phenyl}pyridine-3-carboxylic acid]	–	<5
–	2 µM	Cc1ccc(CC(=O)Nc2cc(-c3ccccc3C(=O)O)ccc2N(CC(C)C)C23CC(C2)C3)cc1 [example 268, 4′-({bicyclo[1.1.1]pentan-1-yl}(2-methylpropyl)amino)-3′-[2-(4-methylphenyl)acetamido]-[1,1′-biphenyl]-2-carboxylic acid]	–	<5
